Experimental data reported in US7550469B2, “Heterocyclic amide derivatives and their use as dopamine D3 receptor ligands” (Aventis Pharmaceuticals Inc., priority 2001, dated 2009).

How the values were obtained:
[1] = tested on: Alpha-1 adrenergic receptors from rat brain cortex; assay: [3H]Prazosin binding to alpha-1 adrenergic receptors from rat brain cortex (Protocol 4); conditions: for r-α1 % Inh: r = rat, Inh @ 1 μM
Excerpt: [^3H]Prazosin Binding to Alpha-1 Adrenergic Receptors from Rat Brain Cortex
Objective: This in vitro assay is designed as a screen to identify compounds displaying a affinity for the a, adrenoceptor subtype in membranes from rat cortex. It measures the ability of the test compounds to displace [^3H]prazosin from the α1 sites.
Membrane Preparation: Rat brain tissue can be obtained from either fresh (male Wistar rats; 200-250 g) or frozen (male Sprague-Dawley 200-250 g from Harlan; cat. #BT-403) stocks. The cortex is dissected, homogenized in 50 vol (wet weight) ice-cold 50 mM Tris buffer (pH 7.7 at 25° C.). The homogenate is centrifuged at 48,000 g for 10 min, the pellet is resuspended in 50 mM Tris buffer and centrifuged a second time. The second pellet (P2) is resuspended to yield a concentration of 115 mg wet weight per 10 ml. […] Membranes should be mixed just before addition to ensure an even suspension. […] This is diluted to a 0.5 mM stock in dH2O. Serial dilutions in Buffer A are made from which 50 μl additions to the plate are made in duplicate in order to achieve the final concentrations desired. Typically, one 96 well plate is used to evaluate 11 compounds at 4 concentrations (10^−6-10^−9 M) in duplicate. Total binding and nonspecific binding are determined in quadruplicate. Usually one standard is run with each assay. • [^3H]Prazosin is made up in Buffer A such that when 50 μl are added per well the final concentration is […] in a final assay volume of 200 μl. The final concentration should be verified by running a sample in a scintillation counter prior to adding the [^3H]prazosin to the 96 well plate. Note: The radioactivity should be prepared just before the additions are made so that it is not allowed to sit on the bench for very long. • Packard GF/B Plate Pretreatment: The filter plates are presoaked for at least 30 min in ice cold Buffer B containing 0.05% polyethyleneimine (200 μl/200 ml) to maximize filtration efficiency and minimize filter blank binding. • Incubation & Filtration: Once buffer, compounds, [^3H]prazosin and membrane have been added (and mixed), the 96 well plates are incubated for 40 min at 37° C. and spaced 3-5 min apart. At 40 min, the plates are filtered using a Tomtec Automated Cell Harvester. Filtration is immediately followed by washes of ice cold Buffer B (total vol. ˜7 ml). • Drying and Counting: Each filter plate is dried under a heat lamp for 15 min. The back of the plate is sealed and 40 μl of Packard microscint fluid are added per well. Using Packard film, each plate is heat sealed prior to being counted in a Packard Topcount Scintillation counter. A program has been written that counts each plate twice sending DPM, CPM and TSIS data to disk and printer. • Analysis of Results: Raw DPM and CPM data are captured on disk and are imported into one of several software packages (Graphpad Prism Ver 2.0, Excel) residing on the LAN. Specific binding is defined as the difference between total binding and the binding in the presence of 10 μM phentolamine. Total binding is less than 10% of the total added ligand. Software using one-site competition curve analysis is employed in the calculation of IC50 and KI (Cheng-Prusoff equation, 1973). The top and bottom of the non-linear regression are held constant at 0% and 100% inhibition. The percent inhibition at each drug concentration is the mean of duplicate determinations.

[2] = target: T1, human dopamine D3 receptor (Homo sapiens, UniProt P35462); assay: Microphysiometer test of functional activity in CHO cells expressing human dopamine D3 receptor (quinpirole-induced acidification rate); assay type: cell-based; conditions: test compound 10 nM, 100 nM, 1 uM; quinpirole 10 nM
T1 construct: expressed in transfected cells; host or cells: CHO cells
T1 sequence (P35462 whole entry): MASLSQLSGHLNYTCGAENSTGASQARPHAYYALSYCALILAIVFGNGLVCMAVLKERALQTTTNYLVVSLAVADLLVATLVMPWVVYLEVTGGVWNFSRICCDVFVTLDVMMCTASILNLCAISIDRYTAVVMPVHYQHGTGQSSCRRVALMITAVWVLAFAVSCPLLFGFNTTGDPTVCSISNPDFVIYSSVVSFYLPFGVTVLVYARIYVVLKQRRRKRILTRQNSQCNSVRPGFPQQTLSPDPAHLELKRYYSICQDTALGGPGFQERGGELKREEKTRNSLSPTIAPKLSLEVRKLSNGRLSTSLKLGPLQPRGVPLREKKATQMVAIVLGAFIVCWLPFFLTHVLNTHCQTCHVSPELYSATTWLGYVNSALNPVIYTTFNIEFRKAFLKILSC
Description: The functional activity of compounds of the invention (i.e. whether they are antagonists, agonists or partial agonists) can readily be determined using the microphysiometer test method that follows:
Chinese Hamster Ovary (CHO) cells, expressing the human dopamine D3 receptor, were grown on the surface of a capsule cup. Cups are assembled and placed on the microphysiometer, and buffer (Dulbecco's Modified Eagle's Medium without sodium bicarbonate and without serum) is perfused through the cup assembly until a stable baseline is achieved (4 hours). Buffer perfusion rate and solution changes are controlled by a computer. Intracellular acidification rate is measured in each of the 8 cup assemblies and recorded by the computer. Buffer containing test compound (10 nM, 100 nM, and 1 uM) is perfused through the cup assembly for 20 min. Buffer containing quinpirole (10 nM) (a D3 agonist) and test compound (same concentrations) is perfused for an additional 1 min. This is followed by a recovery period of 10-60 min where buffer alone was perfused through the cups. Quinpirole increases the rate of acidification. If the test compound is a D3 antagonist, this increase will be inhibited in a concentration dependent manner.

r-α1 % Inh [1] | also measured | SMILES
– | rat alpha 1 % I ([1]; @ 10 uM): 50% @ 10 uM | O=C(NCCCCN1CCN(c2csc3cc(C(F)(F)F)ccc23)CC1)c1cc2ccccc2s1 [814238A]
– | functional activity at D3 (inhibition of quinpirole-induced increase of acidification rate) [2]: D3 antagonists | CCOc1ccc(C(=O)NCCCCN2CCN(c3csc4cc(C(F)(F)F)ccc34)CC2)cc1 [compound 815541]
14% | – | O=C(NCCCCN1CCCN(c2csc3cc(F)ccc23)CC1)c1ccc(OC(F)(F)F)cc1 [compound 822152]
0% | – | O=C(NCCCCN1CCCN(c2csc3cc(F)ccc23)CC1)c1cccc(F)c1 [compound 822154]
41% | – | COc1ccccc1C(=O)NCCCCN1CCCN(c2csc3cc(F)ccc23)CC1 [compound 822157]
0% | – | CC(C)(C)c1ccc(C(=O)NCCCCN2CCCN(c3csc4cc(F)ccc34)CC2)cc1 [compound 822198]
